Test results as given in EP1166784B1, “INHIBITION OF VASCULAR RESTENOSIS AFTER ANGIOPLASTY” (Meiji Seika Kaisha, Ltd., priority 1999, dated 2000).

Assays:
[1] = tested on: balloon-injured site of the abdominal aorta blood vessel; experiment: PDT treatment in rabbit model with arterial injury (balloon catheter), pathological study (Example 1); assay type: in vivo; settings: 2.5 mg/kg i.v., laser 664 nm, 50 or 100 J/cm^2, optical fiber in inflated 2F balloon catheter
Method: Mono-L-aspartylchlorin e6 tetrasodium salt (NPe6) was intravenously administered at a dose of 2.5 mg/kg to a rabbit weighing about 4 kg. A commercially available 2F balloon catheter was immediately then inserted through the femoral artery into the abdominal aorta of rabbit. Thereafter, there are repeated operations of drawing out from the blood vessel the balloon catheter with the inflated balloon, inserting the balloon catheter again into the blood vessel, and drawing out the balloon catheter with the inflated balloon, whereby a rabbit model with an arterial injury was produced. This method for producing the rabbit model having the arterial injury at the blood vessel inner wall was in accordance with the method of Hsiang et al. (see Ann. Vasc. Surg., Vol.9, p.80-86, 1995). At the end of 3 hours after the administration of NPe6, an optical fiber for irradiation of laser (made of an acrylic polymer filament having an external diameter of 0.5 mm and provided with the emitter part of 15mm in length) was inserted into the hollow hole of the 2F balloon catheter which had been inserted in and kept remained at the balloon-injured site of the abdominal aorta blood vessel. The balloon of the catheter was then inflated. Laser light of 664 nm wavelength was passed into and transmitted through the optical fiber to make the laser light to irradiate the abdominal artery at the balloon-injured site, and thereby to carry out the PDT treatment of said site at a laser fluence of 50 or 100 J/cm^2. The laser (of the wavelength of 664 nm) used was emitted from a laser-generating source of semi-conductor type known for PDT. At the respective ends of four days, two weeks and four weeks after the above PDT treatment so made, the site having received the PDT treatment was pathologically studied.

[2] = tested on: intimal thickening induced at the balloon-intervented and injured site of blood vessel; experiment: Suppressive effect of PDT treatment on intimal thickening in rabbit model with arterial injury, image analysis of neo-intima and tunica media areas (Example 2); assay type: in vivo; settings: 2.5 mg/kg i.v., laser 664 nm 3 hours after administration, two weeks after PDT; for Inhibition rate (%): versus untreated group
Method: Mono-L-aspartylchlorin e6 tetrasodium salt was intravenously administered at a dose of 2.5 mg/kg to three rabbits each weighing about 4 kg. […] The neo-intima (9) had newly been produced from the inner side of the tunica media (8) due to the injury as induced by the balloon-intervention. At the end of three hours after the administration of mono-L-aspartylchlorin e6 tetrasodium salt, a device comprising an optical fiber for the irradiation of laser was inserted in the blood vessel of rabbit having the intimal thickening, to arrive at the balloon-injured site of the blood vessel. In order to estimate in comparison the achievable suppressive effects of the PDT treatments against the vascular restenosis, the above test procedures were conducted with employing two different types of the laser-irradiating devices comprising the optical fiber for the irradiation of laser, a first one type of which two different devices was such a laser-irradiating device that comprised an optical fiber as integrated with a balloon catheter and that is shown in Figure 1 of the appended drawing. The other type of the laser-irradiating device employed was comprising simply the conventional type of cylindrical optical fiber. In the tests, either one of these two different types of the laser-irradiating devices containing an optical fiber was inserted into the abdominal aorta under test. Under roentgenoscopy, an X-ray-shielding marker which had been provided in the laser-irradiating optical fiber so inserted was observed as a guide. This guide was used so that the position of the optical fiber device as inserted could be adjusted so as to be located in a position optimal to make the laser to irradiate selectively just the balloon-injured site of the abdominal aorta under test. Then, the irradiation of the laser through said optical fiber was carried out at a laser fluence of 50 or 100 J/cm^2 by means of a semiconductor generator for generating the laser of a wavelength of 664 nm. […] From the photographies of showing the traverse cross-section of histopathologically stained test specimens as collected from the above PDT-treated site of the blood vessel, the area of the tunica media and the area of the neo-intima of the test specimens of the blood vessel under test were measured by an image analyzer. The ratio of the area of the tunica media to the area of the neo-intima of the blood vessel specimens was calculated. […]

[3] = conventional type of cylindrical optical fiber device, 100 J/cm^2
[4] = optical fiber device integrated with the balloon catheter, 50 J/cm^2

C=Cc1c(C)c2cc3nc(c(CC(=O)N[C@@H](CC(=O)[O-])C(=O)[O-])c4[nH]c(cc5nc(cc1[nH]2)C(C)=C5CC)c(C)c4C(=O)[O-])[C@@H](CCC(=O)[O-])[C@@H]3C.[Na+].[Na+].[Na+].[Na+] [NPe6, Mono-L-aspartylchlorin e6 tetrasodium salt]
injuries in the regions of the blood vessel participating in the entire construction of the blood vessel (pathological findings) ([1]; 2 and 4 weeks after PDT): no injuries were developed
intimal thickening as produced by the vascular neo-intima formed at the PDT-treated site (pathological findings) ([1]; 2 and 4 weeks after PDT): inhibited
cells of the tunica media of the blood vessel at the PDT-treated site (pathological findings) ([1]; four days after PDT): destroyed in a broad region of ranging from the inner wall side towards the outer wall side of the blood vessel
Ratio of area of neointima to area of tunica media in blood vessel [2, 3]: 0.87±0.37
Inhibition rate (%) [2, 3]: 28.7%
Ratio of area of neointima to area of tunica media in blood vessel [2, 4]: 0.68±0.21
Inhibition rate (%) [2, 4]: 44.3%
